Reference: patent US8486464B2, “Herbal composition for angina pectoris, method to prepare same and uses thereof” (Tasly Pharmaceutical Group Co. Ltd., priority 2000, dated 2013)
Where two headings read alike, the source gives them in different places.

Columns and labels:
[1] = cited from earlier work
[2] = test system: polychromatic RBCs; test: Micronucleus rates in mice; type: in vivo; conditions: 80 mg/kg; 24 hrs
[3] = test system: thrombosis, platelet aggregation, coagulation; conditions: single injection of 20 mg/kg; cited from earlier work
[4] = test system: CK, LDH; test: Dog blood serum CK and LDH; type: in vivo; conditions: dogs, Dan Shen Pill 2 g/kg
Protocol: (§1) 1.1 Experimental Groups. (1) Blank control group, normal saline 3 ml/kg; (2) DSP group, 2 g natural drug/kg; (3) positive control group, Ditiazem, 5 mg/kg. All the above samples are diluted with normal saline to the same volume of 3 ml/kg and were given to the patient through the duodenum.
(§2) 1.2 Experimental Method. The dogs are anesthetized with pentobarbital sodium. Chests were opened and coronary arterioles and the central part of the dorsal lower branch separated and tied to create an acute myocardial ischemia model. ECGs were recorded and the level of myocardial ischemia (increased section ST, ST) and area of myocardial ischemia (the total increased decimal places in section ST) were calculated. The oxygen content in the coronary artery was recorded. Blood serum creatine kinase (CK), lactate dehydrogenase (LDH), ET, TXB2 and 6-Keto-PGF1 were measured. The oxygen content of the aorta and coronary vein, and blood flow volume in the coronary arteries were measured to calculate myocardial oxygen consumption. Blood oxygen content in the coronary vein was measured to calculate myocardial oxygen content (myocardial oxygen content=(blood oxygen content in arteries-blood oxygen content in coronary veins)×blood flow volume in coronary artery/100).

[5] = test system: ET, TXB2, 6-Keto-PGF1α; test: Dog plasma ET, TXB2, 6-Keto-PGF1α; type: in vivo; conditions: dogs, Dan Shen Pill 2 g/kg, Diltiazen 5 mg/kg
Protocol: as §1, §2

[6] = test system: hemicrania; test: Hemicrania, DSP vs Flunarizine; type: in vivo, human; conditions: 8 weeks
Protocol: (2) Effects on hemicrania 58 patients with hemicrania were selected from clinics. They all qualify under International Headache Standards classifications. 10 tablets of DSP (25 mg/tablet) were given to the Treatment group, 3 times/day. 5 mg of Flunarizine was given to the control group, once a day, orally. The medication lasted 8 weeks. Treatment results and side effects were recorded every 2 weeks. No other pain-killing medications were taken within the 6 months.
Treatment standards. Controlled: Headaches disappeared with medication, and there was no reoccurrence after treatment ended; Obvious efficacy: The seriousness of headaches is reduced, duration is shortened, and onset frequency is reduced to 75% or more; Efficacy: The level of headache is reduced, and onset frequency is reduced 50%˜70%; Failure: No improvement in headaches.

[7] = cited from earlier work; remark: listed apart in the source
[8] = test system: dizziness; test: Dizziness, DSP vs lidocaine; type: in vivo, human
Text: 61 patients were divided into two groups at random. 29 patients were in the Treatment group, including 22 patients with insufficient blood supply to the cerebral artery, 7 patients with Meniere Disease, 5 patients with high blood pressure, and 2 patients with coronary heart disease. 32 patients were in the control group, including 22 patients with insufficient blood supply to the cerebral artery, 10 patients with Meniere Disease, 7 patients with high blood pressure, and 4 patients with coronary heart disease. 10 tablets of DSP were given to the Treatment group, 3-5 times/day for 3-7 days. 50 mg of lidocaine was injected into the Control group, once a day for 3-7 days.
Treatment method: (1) Obvious Efficacy: Dizziness and other companion symptoms disappeared, and there was no re-occurrence for 12 hrs after observation. (2) Efficacy: The level of dizziness and other symptoms disappeared. (3) Failure: No improvement.

[9] = test system: hemorheology; test: Chronic pulmonary heart disease: hemorheologic markers; type: in vivo, human
Text: (§3) 90 cases of chronic pulmonary heart disease were selected based on the diagnosis standard set up during the National Pulmonary Heart Disease Congress in 1977. The patients were divided randomly into an Observation group and a Control group. The 60 cases in the Observation group took DSP, while the 30 cases in the Control group took persantin. Based on the objectives of: reduced inflammation, coughing cessation, dissolving of sputum, cardial and diuretic action, and cardiac function improvement, the Observation group was given 10 grains of DSP, 3 times a day. The Control group was given 50 mg of Poon Seng Ding each time, 3 times a day. Treatment lasted 1 month.

[10] = test system: chronic pulmonary heart disease; test: Chronic pulmonary heart disease, DSP vs persantin: efficacy; type: in vivo, human; conditions: 1 month
Text: as §3
(1) Obvious Efficacy. The symptoms such as coughing, asthma, pulmonary rales, syanosis were relieved or disappeared. The ascites and lower limbs sdema were disappeared as well. Heartbeat was under 100 times/min and cardiac function was improved above grade I-II. The urine volume per day increased by 600 ml and above, while the body weight decreased by 4%. The end-brush circulations were improved.
(3) Inefficacy. Above all markers were not improved.

[11] = Diltiazen 5 mg/kg, 30 min after dosage
[12] = Diltiazen 5 mg/kg, 60 min after dosage
[13] = Diltiazen 5 mg/kg, 90 min after dosage
[14] = Diltiazen 5 mg/kg, 120 min after dosage
[15] = Diltiazen 5 mg/kg, 180 min after dosage
[16] = Diltiazen 5 mg/kg, after hypoxia before dosage
[17] = Ditiazen 5 mg/kg, 30 min after dosage
[18] = Ditiazen 5 mg/kg, 60 min after dosage
[19] = Ditiazen 5 mg/kg, 90 min after dosage
[20] = Ditiazen 5 mg/kg, 120 min after dosage
[21] = Ditiazen 5 mg/kg, 180 min after dosage
[22] = Ditiazen 5 mg/kg, after hypoxia before dosage
[23] = Insufficient blood supply to the brain

## 3H-Borneol [Example 3H-Borneol]
[1]; oral administration
  diminishing half-lifetime: 5.3 h
[1]; single intraveneous injection
  half-life time: 2.8 min

## O=P1(N(CCCl)CCCl)NCCCO1 (stereo not shown) [CP]
[2]
  Micro-rates (%): 23.0 ± 4.0 %
  Micronucleus Cells: 138

## O=C(O)[C@H](O)Cc1ccc(O)c(O)c1 [Danshensu, D(+)-3,4-dihydroxyphenyl lactic acid]
[3]
  duration of effect: 1 h
  time of peak effect: 30 min

## COc1ccc([C@@H]2Sc3ccccc3N(CCN(C)C)C(=O)[C@@H]2OC(C)=O)cc1 [Diltiazen]
[4]; [11]
  LDH, changing in percentage (before dosage = 100%): 101.14 ± 17.90 %
  blood serum LDH: 143.40 ± 28.64 U/L
[4]; [12]
  LDH, changing in percentage (before dosage = 100%): 92.58 ± 15.17 %
  blood serum LDH: 134.40 ± 46.48 U/L
[4]; [13]
  LDH, changing in percentage (before dosage = 100%): 93.31 ± 19.02 %
  blood serum LDH: 153.00 ± 70.80 U/L
[4]; [14]
  LDH, changing in percentage (before dosage = 100%): 121.32 ± 22.12%
  blood serum LDH: 194.60 ± 76.72 U/L
[4]; [15]
  LDH, changing in percentage (before dosage = 100%): 117.24 ± 26.69 %
  blood serum LDH: 164.80 ± 49.36 U/L
[4]; [16]
  LDH, changing in percentage: 101.14 ± 17.90 %
  blood serum LDH: 143.40 ± 28.64 U/L
[4]; Diltiazen 5 mg/kg, before hypoxia (normal)
  blood serum LDH: 106.40 ± 19.12 U/L
[5]; 30 min after dosage
  6-Keto-PGF1α/TXB2: 1.507 ± 0.505
  6-Keto-PGF1α/TXB2, changing in percentage (before dosage = 100%): 148.42 ± 17.35 %
[5]; 60 min after dosage
  6-Keto-PGF1α/TXB2: 1.501 ± 0.358
  6-Keto-PGF1α/TXB2, changing in percentage (before dosage = 100%): 155.44 ± 28.97 %
[5]; 90 min after dosage
  6-Keto-PGF1α/TXB2: 1.980 ± 0.924
  6-Keto-PGF1α/TXB2, changing in percentage (before dosage = 100%): 203.82 ± 83.25 %
[5]; 120 min after dosage
  6-Keto-PGF1α/TXB2: 1.980 ± 0.924
  6-Keto-PGF1α/TXB2, changing in percentage (before dosage = 100%): 203.82 ± 83.25 %
[5]; 180 min after dosage
  6-Keto-PGF1α/TXB2: 1.801 ± 0.596
  6-Keto-PGF1α/TXB2, changing in percentage (before dosage = 100%): 198.48 ± 87.02 %
[5]; after hypoxia before dosage
  6-Keto-PGF1α/TXB2: 143.40 ± 28.64
  6-Keto-PGF1α/TXB2, changing in percentage: 101.14 ± 17.90 %
[5]; before hypoxia (normal value)
  6-Keto-PGF1α/TXB2: 106.40 ± 19.12

## COc1ccc([C@@H]2Sc3ccccc3N(CCN(C)C)C(=O)[C@@H]2OC(C)=O)cc1 [Ditiazen]
[4]; [17]
  CK, changing in percentage (before dosage = 100%): 97.20 ± 12.50 %
  blood serum CK: 660.40 ± 184.88 U/L
[4]; [18]
  CK, changing in percentage (before dosage = 100%): 108.84 ± 20.71 %
  blood serum CK: 737.80 ± 159.04 U/L
[4]; [19]
  CK, changing in percentage (before dosage = 100%): 115.31 ± 19.97 %
  blood serum CK: 820.80 ± 289.76 U/L
[4]; [20]
  CK, changing in percentage (before dosage = 100%): 314.91 ± 23.35 %
  blood serum CK: 972.40 ± 347.28 U/L
[4]; [21]
  CK, changing in percentage (before dosage = 100%): 179.51 ± 10.60 %
  blood serum CK: 1238.60 ± 309.12 U/L
[4]; [22]
  CK, changing in percentage: 219.80 ± 38.93 %
  blood serum CK: 699.60 ± 211.52 U/L
[4]; Ditiazen 5 mg/kg, before hypoxia (normal)
  blood serum CK: 316.20 ± 63.04 U/L

## Fc1ccc(C(c2ccc(F)cc2)N2CCN(C/C=C/c3ccccc3)CC2)cc1 [Flunarizine]
[6]
  Controlled, number of cases: 5
  Efficacy, number of cases: 7
  Failure, number of cases: 9
  Obvious efficacy, number of cases: 7
  total efficacy: 67.86%

## Cc1nc(C)c(C)nc1C.O=P(O)(O)O [TMP, tetramethylpyrazine phosphate]
[7]; TMP 5 mg/kg ig with previous borneol 5 mg/kg
  Cmax: 931 ng/mL
[7]; TMP 5 mg/kg ig without borneol
  Cmax: 562 ng/mL

## CCN(CC)CC(=O)Nc1c(C)cccc1C [lidocaine]
[8]; 3-7 days, 29 DSP, 32 lidocaine patients
  total efficacy: 87.5%
[8]; [23]
  Efficacy, cases: 8
  Failure, cases: 2
  Obvious Efficacy, cases: 12
  Total efficacy, %: 91%
  Total efficacy, cases: 20
[8]; Meniere disease
  Efficacy, cases: 2
  Failure, cases: 2
  Obvious Efficacy, cases: 6
  Total efficacy, %: 80%
  Total efficacy, cases: 8
[8]; Total (all dizziness patients)
  Efficacy, cases: 10
  Failure, cases: 4
  Obvious Efficacy, cases: 18
  Total efficacy, %: 87.5%
  Total efficacy, cases: 28

## OCCN(CCO)c1nc(N2CCCCC2)c2nc(N(CCO)CCO)nc(N3CCCCC3)c2n1 [persantin]
[9]; After treatment, 1 month
  Aggregation rate of platelet: 32.28 ± 20.30%
  Blood viscosity: 3.66 ± 0.58
  Fibrinogen: 3.60 ± 0.23 g/L
  Hematocrit: 0.37 ± 0.05 VOL/%
[9]; before treatment
  Aggregation rate of platelet: 4.16 ± 2.32%
  Blood viscosity: 4.35 ± 0.81
  Fibrinogen: 4.22 ± 0.34 g/L
  Hematocrit: 0.48 ± 0.05 VOL/%
[10]
  Efficacy, number of cases: 9
  Efficacy, rate: 0.3
  Obvious efficacy, number of cases: 14
  Obvious efficacy, rate: 0.47
  Total efficacy rate: 0.76
  Total efficacy, number of cases: 23
  inefficacy, number of cases: 7
  inefficacy, rate: 0.23
[10]; 60 DSP, 30 persantin
  Total efficacy rate: 76%
